Data as given in patent US12350288B2, “Inducing caspase activity” (Dow Global Technologies LLC, priority 2019, dated 2025).

System: HT-29 cells (human colon; colorectal adenocarcinoma)
Description: HT-29 (ATCC® HTB-38™) cells (which contained approximately 1×10^6 cells per mL) were initiated and seeded into a T-25 flask containing McCoy's 5A and fetal bovine serum (10% (v/v)). […] The cells were grown in a humidified incubator (SANYO INCT-16-CMT; MCO-19AIC (UV)) maintained at 37° C. and 5% CO2. Then, the cells were rinsed with 1× Dulbecco's Phosphate-Buffered Saline and sub-cultured in T-75 flasks 1 to 3 times per week using 1× Trypsin-EDTA, applied for ≤5 minutes; enzymatic action of the trypsin-EDTA was stopped by adding complete growth medium to the detached cells. Then, upon reaching 80 to 90% confluency the cells were split into the following split ratio ranges: 1:5 to 1:16. Subculture and growth expansion activities were recorded, such as passage number, % confluency, % viability (only on experimental set-up day), and cell morphology throughout all phases. The cells were maintained in log-phase growth.
Cell culture plating was performed as follows. A cell suspension from a single 80 to 90% confluent T-75 flask was harvested with trypsin-EDTA and complete growth medium. To obtain cell concentration and viability, cell counts were obtained using a COUNTESS automated cell counter (INVITROGEN C10227; CNTR-7-CMT) in which 2 chambers of each slide were provided with 10 μL each of 1:1, 0.4% trypan-blue dye (INVITROGEN T10282) and cell suspension. […]

## Poly(ethylene glycol) methyl ether tosylate
  viability: ≥ 70%
